Assay results: patent US11447486B2, “2-amino-benzimidazole derivatives and their use as 5-lipoxygenase and/or prostaglandin E synthase inhibitors” (INSTITUT PASTEUR KOREA, priority 2014, dated 2022)

How the values were obtained:
[1] = test system: Rat basophilic leukemia (RBL) cells; experiment: LTB4 secretion assay in RBL (rat basophilic leukemia cells); type: cell-based; conditions: Rattus norvegicus, RBL
Description: Rat basophilic leukemia (RBL) cells (ATCC, Cat #CRL-2256) were maintained in EMEM (ATCC, Cat #30-2003) supplemented with 15% FBS. The day before RBL assay, cells were seeded at a concentration of 2×10^4 cells per well in 96-well plates. The media was replaced with 100 ul of EMEM supplemented with 0.5% FBS and compounds in dose response(5 nM to 100 uM) were added. After 15 min of pre-incubation at 37° C., arachidonic acid and calcium ionophore (A23187) were added to give a final concentration of 2.5 uM and 5 uM, respectively. After a further 10 min incubation at 37° C., culture supernatant was transferred and quantification of LTB4 was done with a Leukotriene B4 EIA kit (Cayman, Cat #520111) as instructed.

[2] = biological target: T1, human 5-LOX (Homo sapiens, UniProt P09917); experiment: 5-LOX enzyme activity, fluorescence method (5-HPETE, H2DCFDA); type: biochemical; conditions: read-out: 5-LO (IC50)
T1 construct: purchased Cayman 60402; host or cells: insect cells (lysate)
T1 sequence (P09917 1-674): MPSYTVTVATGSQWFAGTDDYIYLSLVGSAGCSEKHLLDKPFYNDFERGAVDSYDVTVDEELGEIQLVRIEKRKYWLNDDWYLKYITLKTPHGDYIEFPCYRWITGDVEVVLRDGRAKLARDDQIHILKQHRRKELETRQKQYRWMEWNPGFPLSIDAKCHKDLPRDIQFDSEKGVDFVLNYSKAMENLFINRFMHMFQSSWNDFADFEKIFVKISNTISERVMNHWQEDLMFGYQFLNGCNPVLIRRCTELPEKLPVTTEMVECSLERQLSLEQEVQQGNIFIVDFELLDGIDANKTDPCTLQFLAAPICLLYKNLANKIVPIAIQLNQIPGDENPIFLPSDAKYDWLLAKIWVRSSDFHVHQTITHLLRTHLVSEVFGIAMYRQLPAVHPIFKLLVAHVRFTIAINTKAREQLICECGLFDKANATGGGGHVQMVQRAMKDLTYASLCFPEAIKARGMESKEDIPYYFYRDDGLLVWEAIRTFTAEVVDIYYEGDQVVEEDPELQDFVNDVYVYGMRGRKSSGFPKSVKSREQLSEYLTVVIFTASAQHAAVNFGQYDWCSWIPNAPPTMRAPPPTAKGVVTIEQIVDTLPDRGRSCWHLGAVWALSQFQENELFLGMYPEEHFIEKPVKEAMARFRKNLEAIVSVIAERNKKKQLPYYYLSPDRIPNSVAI
Description: The activity of compounds against 5-LOX were determined by measuring LTB4 (leukotriene B4) levels and/or by a fluorescence method. Both approaches are outlined in more detail below;
The compound, in a dose response manner(0.5 nM to 10 uM), and enzyme mixture was pre-incubated for 5 minutes, and the enzymatic reaction was initiated by addition of ATP and arachidonic acid to a final concentration of 100 uM and 3 uM, respectively. […] All steps were carried out at room temperature.

Compound	EC50 [1] [µM]	IC50 [2] [µM]
Nc1ccc2nc(NCc3ccc(Oc4ccc(Cl)cn4)cc3)n(CCO)c2c1 [Compound 259]	< 10	< 1
Cn1c(NCc2ccc(Oc3ccc(Cl)cc3)nc2)nc2ccc(N)cc21 [Compound 287]	< 10	< 1
Nc1ccc2nc(NCCO)n(Cc3ccc(Oc4ccc(Cl)cn4)cc3)c2c1 [Compound 250]	< 10	< 1
CCOC(c1ccc(CNc2nc3ccc(N)cc3[nH]2)cc1)c1ccccn1 (stereo not shown) [Compound 188]	> 20	< 1
Cn1c(NCc2ccc(Oc3ccc(C(F)(F)F)cn3)cc2)nc2ccc(N)cc21 [Compound 276]	< 10	< 1
Nc1ccc2nc(NCc3ccc(Oc4ccc(Cl)cn4)cc3)n(C3COC3)c2c1 [Compound 261]	< 10	< 1
Cn1c(NCCOc2ccc(Cl)c(Cl)c2)nc2cc(N)ccc21 [Compound 61]	10 to 20	< 1
Cn1c(NCc2ccc(COc3ccc(Cl)cn3)cc2)nc2ccc(N)cc21 [Compound 304]	< 10	< 1
CCC(Nc1nc2ccc(N)cc2n1C)c1ccc(Oc2ccc(Cl)cn2)cc1 (stereo not shown) [Compound 274]	< 10	< 1
Nc1ccc2[nH]c(N3CCC(C(=O)Nc4ccc(OC(F)(F)F)cc4)C3)nc2c1 (stereo not shown) [Compound 64]	> 20	< 1
CN(C)c1nc2ccc(NCc3ccc(N(CC(N)=O)c4ccc(F)cc4)cc3)cc2[nH]1 [Compound 212]	< 10	< 1
CC(C)n1c(NCc2ccc(Oc3ccc(Cl)cn3)cc2)nc2ccc(N)cc21 [Compound 258]	< 10	< 1
CN(C)CCn1c(NCc2ccc(Oc3ccc(Cl)cn3)cc2)nc2ccc(N)cc21 [Compound 286]	< 10	< 1
CC(C)(C(O)c1ccc(CNc2nc3ccc(N)cc3[nH]2)cc1)C(F)(F)F (stereo not shown) [Compound 198]	10 to 20	< 1
Nc1ccc2nc(NCCC(F)(F)F)n(Cc3ccc(Oc4ccc(Cl)cc4)cc3)c2c1 [Compound 264]	< 10	< 1
O=S(=O)(c1ccc(Cl)cc1)c1ccc(CNc2nc3cc(NC4COC4)ccc3[nH]2)cc1 [Compound 133]	10 to 20	< 1
CN(C)c1nc2ccc(N3CCC(C(=O)c4ccc(Cl)cn4)C3)cc2[nH]1 (stereo not shown) [Compound 230]	< 10	< 1
CN(C)c1nc2ccc(Nc3ccn(C)n3)cc2n1CCOc1ccc(OC(F)(F)F)cc1 [Compound 45]	< 10	> 10
CN(C)c1nc2cc(NCc3ccc(-c4ncco4)cc3)ccc2[nH]1 [Compound 220]	< 10	< 1
Nc1ccc2nc(N)n(CCc3ccc(Oc4ccc(Cl)cn4)cc3)c2c1 [Compound 244]	< 10	< 1
Fc1ccc(CNc2nc3cc(NCc4cnc[nH]4)ccc3[nH]2)cc1 [Compound 29]	< 10	< 1
COC(=O)c1ccc(OC2CCN(c3ccc4[nH]c(N(C)C)nc4c3)C2)cc1 (stereo not shown) [Compound 194]	< 10	< 1
Cn1c(NCc2ccc(Oc3cccnc3)cc2)nc2ccc(N)cc21 [Compound 224]	< 10	< 1
CN(C)c1nc2ccc(N)cc2n1CCOc1ccc(Cl)cc1 [Compound 39]	10 to 20	< 1
CN(C)c1nc2cc(NC3COC3)ccc2n1CCOc1ccc(Cl)cc1 [Compound 41]	10 to 20	1 to 10
Cc1cc(CNc2nc3ccc(N)cc3n2C)ccc1Oc1ccc(Cl)cn1 [Compound 282]	< 10	< 1
Nc1nc2ccc(N3CCC(Oc4ccc(OC(F)(F)F)cc4)C3)cc2[nH]1 (stereo not shown) [Compound 63]	10 to 20	< 1
CN(C)c1nc2cc(NCc3coc(Nc4ccc(Cl)cc4)n3)ccc2[nH]1 [Compound 214]	< 10	< 1
Fc1ccc(CCNc2nc3cc(NC4COC4)ccc3[nH]2)cc1 [Compound 33]	< 10	< 1

Now from value to compound:

EC50 [1] [µM]	IC50 [2] [µM]	Compound
10 to 20	< 1	Cn1c(NCc2ccc(Oc3nccc4cc(Cl)ccc34)cc2)nc2ccc(NC3COC3)cc21 [Compound 439]
< 10	< 1	Cc1ccc(Oc2ccc(CNc3nc4ccc(N)cc4n3C)cc2)nc1 [Compound 352]
> 20	1 to 10	Cn1c(NCc2ccc(Oc3ncc(Cl)cn3)cn2)nc2ccc(NC3COC3)cc21 [Compound 355]
> 20	< 1	Cn1c(N(CCO)Cc2ccc(Oc3ccc(Cl)cn3)cc2)nc2ccc(N)cc21 [Compound 317]
< 10	< 1	Cn1c(NCc2ccc(Oc3ncc4cc(Cl)ccc4n3)cc2)nc2ccc(NC3COC3)cc21 [Compound 406]
> 20	< 1	Cn1c(NCc2ccc(Oc3nccc(C(F)(F)F)n3)cc2)nc2ccc(N)cc21 [Compound 363]
< 10	< 1	Cn1c(NCc2ccc(Oc3ccc(Cl)cn3)cc2)nc2ccc(NCCO)cc21 [Compound 313]
< 10	< 1	Cn1c(NCc2ccc(Oc3ccc4ccc(Cl)cc4n3)cc2)nc2ccc(N)cc21 [Compound 419]
> 20	< 1	Cn1c(N(CCO)Cc2ccc(Oc3ccc(Cl)cn3)cc2)nc2ccc(NC3COC3)cc21 [Compound 318]
< 10	< 1	Cn1nc(CF)cc1Nc1ccc2nc(NCc3ccc(Oc4ncc(Cl)cn4)cc3)n(C)c2c1 [Compound 539]
10 to 20	< 1	Cn1c(NCc2ccc(Oc3ccnc4c(Cl)cccc34)cc2)nc2ccc(NC3COC3)cc21 [Compound 388]
< 10	< 1	COc1ccc(Oc2ccc(CNc3nc4ccc(N)cc4n3C)cc2)nc1 [Compound 330]
< 10	< 1	CCC(Nc1nc2ccc(NC3COC3)cc2n1C)c1ccc(Oc2ccc(C(F)(F)F)cn2)cc1 (stereo not shown) [Compound 549]
< 10	< 1	CC(C)c1cc(CNc2nc3ccc(N)cc3n2C)ccc1Oc1ncc(Cl)cn1 [Compound 395]
10 to 20	< 1	Cn1c(NCc2ccc(Oc3ncc4ccc(Cl)cc4n3)cc2)nc2ccc(NC3COC3)cc21 [Compound 444]
< 10	< 1	Cn1c(NCc2ccc(Oc3ccc(Cl)cn3)cc2)nc2ccc(NC3CNC3)cc21 [Compound 401]
< 10	< 1	Cc1cc(Nc2ccc3nc(NC4(c5ccc(Oc6ncc(Cl)cn6)cc5)CC4)n(C)c3c2)n[nH]1 [Compound 478]
< 10	< 1	Cn1c(NCc2ccc(Oc3cnc(Cl)nc3)cc2)nc2ccc(N)cc21 [Compound 340]
> 20	< 1	COCCN(Cc1ccc(Oc2ccc(Cl)cn2)cc1)c1nc2ccc(N)cc2n1C [Compound 338]
< 10	< 1	Cn1c(NCc2ccc(Oc3nc4cc(Cl)ccc4o3)cc2)nc2ccc(NC3COC3)cc21 [Compound 403]
< 10	< 1	Cn1c(NCc2ccc3c(ccn3-c3ccc(Cl)cn3)c2)nc2ccc(NC3COC3)cc21 [Compound 457]
> 20	< 1	Cn1c(NCc2ccc(Oc3ncc(Cl)cn3)cc2)nc2ccc(Nc3n[nH]cc3C(=O)NC3CC3)cc21 [Compound 483]
< 10	< 1	Cn1c(NCc2ccc(Oc3ccc(Cl)cn3)cc2)nc2ccc(NC(C)(C)CO)cc21 [Compound 325]
< 10	> 10	CCn1c(NCc2ccc(Oc3ccc(Cl)cn3)cc2)nc2ccc(Nc3cc(C(F)(F)F)n(C)n3)cc21 [Compound 511]
< 10	< 1	CCC(Nc1nc2ccc(NC3COC3)cc2n1C)c1ccc(Oc2ncc(Cl)cn2)cc1 (stereo not shown) [Compound 453]
< 10	< 1	Cn1c(NCc2ccc(Oc3ccc4cccc(Cl)c4n3)cc2)nc2ccc(NC3COC3)cc21 [Compound 422]
> 20	< 1	Cc1cnc(Oc2ccc(CNc3nc4ccc(N)cc4n3C)cc2)nc1 [Compound 348]
